{
  "source": "patent US4338122A",
  "about": "“Biocidal 2-aryl-1,3-cyclopentanedione compounds and alkali metal and ammonium salts thereof” (Union Carbide Corporation, priority 1980, dated 1982)",
  "key": {"[1]": {"tested_on": "two-spotted mite (Tetranychus urticae (Koch)), adults and nymphal stages", "experiment": "Mite Foliage Spray Test (adult miticidal)", "format": "in vivo", "design": "key to Miticidal, Adult (control rating): A: Excellent Control; B: Partial Control; No Control", "conditions": "Table I; mortality count four days after spraying", "procedure": "(§1) Suspensions of the test compounds were prepared by dissolving one gram of compound in 50 milliliters of acetone in which had been dissolved 0.1 gram (10 percent of the weight of compound) of an alkylphenoxyethoxyethanol surfactant, as an emulsifying or dispersing agent. The resulting solution was mixed into 160 milliliters of water to give roughly 200 milliliters of a suspension containing the compound in finely divided form. The thus prepared stock suspension contained 0.5 percent by weight of compound. The test concentrations employed in the tests described herein below were obtained by diluting the stock suspension with water. The test procedures were as follows:\nAdults and nymphal stages of the two-spotted mite (Tetranychus urticae (Koch)), reared on Tendergreen bean plants at 80°±5° F. and 50±5 percent relative humidity, were the test organisms. Infested leaves from a stock culture were placed on the primary leaves of two bean plants six to eight inches in height, growing in a two-and-a-half inch clay pot. 150-200 Mites, a sufficient number for testing, transferred from the excised leaves to the fresh plants in a period of twenty-four hours. Following the twenty-four hour transfer period, the excised leaves were removed from the infested plants. The test compounds were formulated by diluting the stock suspension with water to provide suspensions containing the desired amount of test compound per million parts of final formulation. The potted plants (one pot per compound) were placed on a revolving turntable and sprayed with 100-110 milliliters of test compound formulation by use of a DeVilbis spray gun set at 40 psi. air pressure. This application, which lasted 30 seconds, was sufficient to wet the plants to run-off. As a control, 100-110 milliliters of a water solution containing acetone and emulsifier in the same concentrations as the test compound formulation, but containing no test compound, were also sprayed on infested plants. The sprayed plants were held at 80°±5° F. and 50±5 percent relative humidity for four days, after which, a mortality count of motile forms was made on the leaves of the test plants. Any individual which was capable of locomotion upon prodding was considered living.\n(§2) In these tests the pesticidal activity of the compounds against mites and mite eggs were rated as follows:\n(§3) Tests were conducted in accordance with the procedures given at pages 32 to 37 supra. The results are expressed in the same manner as used in Table I, except with respect to miticidal activity. For mite adult and mite egg comparison purposes, results are given in parts per million (ppm) required for a 50 percent kill of mites or eggs, respectively."}, "[2]": {"tested_on": "egg of the two-spotted mite (Tetranychus urticae (Koch))", "experiment": "Mite Ovicide Test (egg)", "format": "in vivo", "design": "key to Miticidal, Egg (control rating): A: Excellent Control; B: Partial Control; No Control", "conditions": "Table I; unhatched/hatched eggs four days after spraying", "procedure": "as §1\nThe test organism was the egg of the two-spotted mite (Tetranychus urticae (Koch)), as obtained from adults reared on Tendergreen bean plants under controlled conditions of 80°±5° F. and 50±5 percent relative humidity. Heavily infested leaves from a stock culture were placed on the primary leaves of two bean plants six to eight inches in height growing in a two-and-a-half inch clay pot. Females were allowed to oviposit for a period of 48 hours and then the leaves of the infested plants were dipped in a solution containing 800 parts of tetraethyl pyrophosphate per million parts of water in order to destroy the reproductory forms and thus prevent further egg laying. […] The plants were allowed to dry thoroughly. The test compounds were formulated by diluting the stock suspension with water to give a suspension containing varying amounts of test compound per million parts of final formulation. The potted plants (one pot per compound) were placed on a revolving turntable and sprayed with 100-110 milliliters of test compound formulation by use of a DeVilbis spray gun set at 40 spig. air pressure. This application which lasted 30 seconds, was sufficient to wet the plants to run-off. As a control, 100-110 milliliters of a water solution containing acetone and emulsifier in the same concentrations as the test compound formulation, but containing no test compound, were also sprayed on plants infested with eggs. The sprayed plants were held at 80°±5° F. and 50±5 percent relative humidity for four days, after which a microscopic examination was made of unhatched (dead) and hatched (living) eggs.\nas §2, §3"}},
  "data": [
    {"smiles": "O=C1C(c2ccc(Cl)cc2Cl)C(=O)C2CC=CCC12", "note": "(centres unmarked) [Cl Cl H (CH2 CHCHCH2), 8-(2',4'-dichlorophenyl)bicyclo[4.3.0]non-3-en-7,9-dione]", "values": [
      {"measurement": "Miticidal, Adult (control rating)", "setting": "[1]", "result": "A"},
      {"measurement": "Miticidal, Egg (control rating)", "setting": "[2]", "result": "A"}
    ]}
  ]
}
